Measured values published in patent US8729017B2 (priority 2011, dated 2014).
Numbered stars: 1 amine (or outer) side, 2 acyl side, 3 side chain; on linkers, the order of the positions; unused ones are H or OH. Square brackets hold non-standard residues; d marks the D form. Side chains are listed from the residue outwards. Peptide text beside a SMILES is read from it. * marks the point of attachment. γGlu = O=C(O)[C@H](CCC(=O)[*:2])N[*:1]; Palmitoyl = CCCCCCCCCCCCCCCC(=O)*; Aib = CC(C)(N)C(=O)O

How the values were obtained:
Assay type in all cases: cell-based
glucagon receptor = target: T1, glucagon receptor (Homo sapiens, UniProt P47871); test: cAMP induction, firefly luciferase reporter assay in HEK293 cells co-transfected with the glucagon receptor; conditions: HEK293 cells, cAMP-responsive luciferase reporter, 5 hours incubation
T1 construct: expressed in transfected cells; host or cells: HEK293
T1 sequence (P47871 26-477, species assumed): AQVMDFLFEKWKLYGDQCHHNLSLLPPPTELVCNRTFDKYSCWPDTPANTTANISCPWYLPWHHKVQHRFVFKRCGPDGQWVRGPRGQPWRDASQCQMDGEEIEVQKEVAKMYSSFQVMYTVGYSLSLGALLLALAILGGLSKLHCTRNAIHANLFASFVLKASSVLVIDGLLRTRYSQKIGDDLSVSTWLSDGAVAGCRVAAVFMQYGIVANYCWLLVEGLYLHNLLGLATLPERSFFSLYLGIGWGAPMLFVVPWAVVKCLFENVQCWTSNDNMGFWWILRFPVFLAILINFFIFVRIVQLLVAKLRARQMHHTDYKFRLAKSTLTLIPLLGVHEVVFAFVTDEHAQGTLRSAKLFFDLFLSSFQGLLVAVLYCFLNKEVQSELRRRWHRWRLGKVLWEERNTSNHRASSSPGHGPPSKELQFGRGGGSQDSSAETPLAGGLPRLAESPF
Experimental: (§1) The ability of each peptide to induce cAMP was measured in a firefly luciferase-based reporter assay. […] At the end of the incubation, 100 μL of LucLite luminescence substrate reagent (Perkin Elmer, Wellesley, Mass.) were added to each well. […] In some instances, the in vitro agonist activity at the GIP receptor was also tested.

GIP receptor = target: T2, GIP receptor (Homo sapiens, UniProt P48546); test: in vitro agonist activity at the GIP receptor (cAMP luciferase reporter, HEK293 cells); conditions: in vitro agonist activity; read-out: EC50 (nM) at GIP receptor
T2 construct: expressed in transfected cells; host or cells: HEK293
T2 sequence (P48546 22-466): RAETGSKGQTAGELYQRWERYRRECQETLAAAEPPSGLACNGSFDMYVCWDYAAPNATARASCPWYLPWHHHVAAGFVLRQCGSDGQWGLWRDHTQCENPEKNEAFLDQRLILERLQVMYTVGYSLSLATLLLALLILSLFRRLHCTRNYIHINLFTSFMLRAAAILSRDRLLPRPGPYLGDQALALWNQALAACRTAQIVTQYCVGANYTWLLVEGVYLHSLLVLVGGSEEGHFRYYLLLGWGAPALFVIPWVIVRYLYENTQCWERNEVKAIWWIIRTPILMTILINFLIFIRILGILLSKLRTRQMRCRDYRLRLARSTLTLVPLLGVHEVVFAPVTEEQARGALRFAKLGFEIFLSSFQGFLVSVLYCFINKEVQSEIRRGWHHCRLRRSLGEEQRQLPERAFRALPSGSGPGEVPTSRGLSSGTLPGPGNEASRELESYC
Experimental: as §1, with “It is understood that a lower EC50 indicates higher activity or potency at the receptor. […] The” for “The”

GLP-1 receptor = target: T3, GLP-1 receptor (Homo sapiens, UniProt P43220); test: cAMP induction, firefly luciferase reporter assay in HEK293 cells co-transfected with the GLP-1 receptor; conditions: HEK293 cells, cAMP-responsive luciferase reporter, 5 hours incubation
T3 construct: expressed in transfected cells; host or cells: HEK293
T3 sequence (P43220 24-463): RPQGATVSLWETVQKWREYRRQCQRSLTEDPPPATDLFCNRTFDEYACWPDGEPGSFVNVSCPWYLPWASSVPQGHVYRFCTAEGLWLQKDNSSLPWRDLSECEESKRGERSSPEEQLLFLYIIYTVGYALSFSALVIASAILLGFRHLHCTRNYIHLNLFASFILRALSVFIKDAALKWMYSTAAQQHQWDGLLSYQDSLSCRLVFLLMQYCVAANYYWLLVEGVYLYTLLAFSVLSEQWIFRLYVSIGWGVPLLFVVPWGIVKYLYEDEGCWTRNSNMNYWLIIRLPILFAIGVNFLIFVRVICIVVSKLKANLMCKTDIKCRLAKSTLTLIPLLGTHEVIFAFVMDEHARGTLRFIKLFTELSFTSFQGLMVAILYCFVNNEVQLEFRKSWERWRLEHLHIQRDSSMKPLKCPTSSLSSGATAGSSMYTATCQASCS
Experimental: as §1

| Compound | EC50 (glucagon receptor) [nM] | EC50 (GIP receptor) [nM] | EC50 (GLP-1 receptor) [nM] |
| --- | --- | --- | --- |
| CCCCCCCCCCCCCCCC(=O)N[C@@H](CCC(=O)N[C@@H](CCC(=O)NCCCC[C@H](NC(=O)[C@H](CC(=O)O)NC(=O)[C@H](CO)NC(=O)[C@@H](NC(=O)[C@H](Cc1ccccc1)NC(=O)[C@@H](NC(=O)CNC(=O)[C@H](CCC(N)=O)NC(=O)C(C)(C)NC(=O)[C@@H](N)Cc1c[nH]cn1)[C@@H](C)O)[C@@H](C)O)C(=O)N[C@@H](CO)C(=O)N[C@@H](CCCCN)C(=O)N[C@@H](Cc1ccc(O)cc1)C(=O)N[C@@H](CC(C)C)C(=O)N[C@@H](CC(=O)O)C(=O)NC(C)(C)C(=O)N[C@@H](CCCNC(=N)N)C(=O)N[C@@H](C)C(=O)N[C@@H](C)C(=O)N[C@@H](CCC(N)=O)C(=O)N[C@@H](CC(=O)O)C(=O)N[C@@H](Cc1ccccc1)C(=O)N[C@H](C(=O)N[C@@H](CCC(N)=O)C(=O)N[C@@H](Cc1c[nH]c2ccccc12)C(=O)N[C@@H](CC(C)C)C(=O)N[C@@H](CCSC)C(=O)N[C@@H](CC(=O)O)C(=O)NCC(=O)N[C@@H](CCCNC(=N)N)C(=O)NCC(N)=O)C(C)C)C(=O)O)C(=O)O [compound 22] (H-H[Aib]QGTFTSDK([γGlu-γGlu-Palmitoyl])SKYLD[Aib]RAAQDFVQWLMDGRG-NH2; N-terminus assumed) | 0.005 | 2.37 | 0.002 |
| CCCCCCCCCCCCCCCC(=O)N[C@@H](CCC(=O)N[C@@H](CCC(=O)NCCCC[C@H](NC(=O)[C@H](CC(=O)O)NC(=O)[C@H](CO)NC(=O)[C@@H](NC(=O)[C@H](Cc1ccccc1)NC(=O)[C@@H](NC(=O)CNC(=O)[C@H](CCC(N)=O)NC(=O)C(C)(C)NC(=O)[C@@H](N)Cc1c[nH]cn1)[C@@H](C)O)[C@@H](C)O)C(=O)N[C@@H](CO)C(=O)N[C@@H](CCCCN)C(=O)N[C@@H](Cc1ccc(O)cc1)C(=O)N[C@@H](CC(C)C)C(=O)N[C@@H](CC(=O)O)C(=O)NC(C)(C)C(=O)N[C@@H](CCCNC(=N)N)C(=O)N[C@@H](C)C(=O)N[C@@H](C)C(=O)N[C@@H](CCC(N)=O)C(=O)N[C@@H](CC(=O)O)C(=O)N[C@@H](Cc1ccccc1)C(=O)N[C@H](C(=O)N[C@@H](CCC(N)=O)C(=O)N[C@@H](Cc1c[nH]c2ccccc12)C(=O)N[C@@H](CC(C)C)C(=O)N[C@@H](CCCCN)C(=O)N[C@@H](CC(=O)O)C(=O)NCC(=O)N[C@@H](CCCNC(=N)N)C(=O)N1CCC[C@H]1C(N)=O)C(C)C)C(=O)O)C(=O)O [compound 25] (H-H[Aib]QGTFTSDK([γGlu-γGlu-Palmitoyl])SKYLD[Aib]RAAQDFVQWLKDGRP-NH2) | 0.035 | 2.36 | 0.003 |
| CCCCCCCCCCCCCCCC(=O)N[C@@H](CCC(=O)NCCCC[C@H](NC(=O)[C@H](CC(=O)O)NC(=O)[C@H](CO)NC(=O)[C@@H](NC(=O)[C@H](Cc1ccccc1)NC(=O)[C@@H](NC(=O)CNC(=O)[C@H](CCC(N)=O)NC(=O)[C@@H](CO)NC(=O)[C@@H](N)Cc1c[nH]cn1)[C@@H](C)O)[C@@H](C)O)C(=O)N[C@@H](CO)C(=O)N[C@@H](CCCCN)C(=O)N[C@@H](Cc1ccc(O)cc1)C(=O)N[C@@H](CC(C)C)C(=O)N[C@@H](CC(=O)O)C(=O)N[C@@H](CCC(=O)O)C(=O)N[C@@H](CCCNC(=N)N)C(=O)N[C@@H](C)C(=O)N[C@@H](C)C(=O)N[C@@H](CCC(N)=O)C(=O)N[C@@H](CC(=O)O)C(=O)N[C@@H](Cc1ccccc1)C(=O)N[C@H](C(=O)N[C@@H](CCC(N)=O)C(=O)N[C@@H](Cc1c[nH]c2ccccc12)C(=O)N[C@@H](CC(C)C)C(=O)N[C@@H](CC(C)C)C(=O)N[C@@H](CC(=O)O)C(=O)NCC(=O)N[C@@H](CCCNC(=N)N)C(=O)N[C@@H](CCCCN)C(N)=O)C(C)C)C(=O)O [compound 28] | 0.015 | 2.84 | 0.003 |

Further molecules by falling EC50 (glucagon receptor), results first:

| EC50 (glucagon receptor) [nM] | EC50 (GIP receptor) [nM] | EC50 (GLP-1 receptor) [nM] | Compound |
| --- | --- | --- | --- |
| 0.106 | 3.29 | 0.004 | CCCCCCCCCCCCCCCC(=O)N[C@@H](CCC(=O)N[C@@H](CCC(=O)NCCCC[C@H](NC(=O)[C@H](CC(=O)O)NC(=O)[C@H](CO)NC(=O)[C@@H](NC(=O)[C@H](Cc1ccccc1)NC(=O)[C@@H](NC(=O)CNC(=O)[C@H](CCC(N)=O)NC(=O)C(C)(C)NC(=O)[C@@H](N)Cc1c[nH]cn1)[C@@H](C)O)[C@@H](C)O)C(=O)N[C@@H](CO)C(=O)N[C@@H](CCCCN)C(=O)N[C@@H](Cc1ccc(O)cc1)C(=O)N[C@@H](CC(C)C)C(=O)N[C@@H](CC(=O)O)C(=O)NC(C)(C)C(=O)N[C@@H](CCCNC(=N)N)C(=O)N[C@@H](C)C(=O)N[C@@H](C)C(=O)N[C@@H](CCC(N)=O)C(=O)N[C@@H](CC(=O)O)C(=O)N[C@@H](Cc1ccccc1)C(=O)N[C@H](C(=O)N[C@@H](CCC(N)=O)C(=O)N[C@@H](Cc1c[nH]c2ccccc12)C(=O)N[C@@H](CC(C)C)C(=O)N[C@@H](CCCCN)C(=O)NC(C)(C)C(=O)NCC(=O)N[C@@H](CCCNC(=N)N)C(=O)NCC(N)=O)C(C)C)C(=O)O)C(=O)O [compound 26] (H-H[Aib]QGTFTSDK([γGlu-γGlu-Palmitoyl])SKYLD[Aib]RAAQDFVQWLK[Aib]GRG-NH2; N-terminus assumed) |
| 0.023 | 1.58 | 0.004 | CCCCCCCCCCCCCCCC(=O)N[C@@H](CCC(=O)N[C@@H](CCC(=O)NCCCC[C@H](NC(=O)[C@H](CC(=O)O)NC(=O)[C@H](CO)NC(=O)[C@@H](NC(=O)[C@H](Cc1ccccc1)NC(=O)[C@@H](NC(=O)CNC(=O)[C@H](CCC(N)=O)NC(=O)C(C)(C)NC(=O)[C@@H](N)Cc1c[nH]cn1)[C@@H](C)O)[C@@H](C)O)C(=O)N[C@@H](CO)C(=O)N[C@@H](CCCCN)C(=O)N[C@@H](Cc1ccc(O)cc1)C(=O)N[C@@H](CC(C)C)C(=O)N[C@@H](CC(=O)O)C(=O)NC(C)(C)C(=O)N[C@@H](CCCNC(=N)N)C(=O)N[C@@H](C)C(=O)N[C@@H](C)C(=O)N[C@@H](CCC(N)=O)C(=O)N[C@@H](CC(=O)O)C(=O)N[C@@H](Cc1ccccc1)C(=O)N[C@H](C(=O)N[C@@H](CCC(N)=O)C(=O)N[C@@H](Cc1c[nH]c2ccccc12)C(=O)N[C@@H](CC(C)C)C(=O)N[C@@H](CCSC)C(=O)N[C@@H](CCCCN)C(=O)NCC(=O)N[C@@H](CCCNC(=N)N)C(=O)NCC(N)=O)C(C)C)C(=O)O)C(=O)O [compound 23] (H-H[Aib]QGTFTSDK([γGlu-γGlu-Palmitoyl])SKYLD[Aib]RAAQDFVQWLMKGRG-NH2; N-terminus assumed) |
| 0.022 | 2.12 | 0.005 | CCCCCCCCCCCCCCCC(=O)N[C@@H](CCC(=O)NCCCC[C@H](NC(=O)[C@H](CC(=O)O)NC(=O)[C@H](CO)NC(=O)[C@@H](NC(=O)[C@H](Cc1ccccc1)NC(=O)[C@@H](NC(=O)CNC(=O)[C@H](CCC(N)=O)NC(=O)[C@@H](CO)NC(=O)[C@@H](N)Cc1c[nH]cn1)[C@@H](C)O)[C@@H](C)O)C(=O)N[C@@H](CO)C(=O)N[C@@H](CCCCN)C(=O)N[C@@H](Cc1ccc(O)cc1)C(=O)N[C@@H](CC(C)C)C(=O)N[C@@H](CC(=O)O)C(=O)N[C@@H](CCC(=O)O)C(=O)N[C@@H](CCCNC(=N)N)C(=O)N[C@@H](C)C(=O)N[C@@H](C)C(=O)N[C@@H](CCC(N)=O)C(=O)N[C@@H](CC(=O)O)C(=O)N[C@@H](Cc1ccccc1)C(=O)N[C@H](C(=O)N[C@@H](CCC(N)=O)C(=O)N[C@@H](Cc1c[nH]c2ccccc12)C(=O)N[C@@H](CC(C)C)C(=O)N[C@@H](CC(C)C)C(=O)N[C@@H](CCCCN)C(=O)NCC(=O)N[C@@H](CCCNC(=N)N)C(=O)NCC(N)=O)C(C)C)C(=O)O [compound 27] |
| 0.021 | 1.46 | 0.004 | CCCCCCCCCCCCCCCC(=O)N[C@@H](CCC(=O)N[C@@H](CCC(=O)NCCCC[C@H](NC(=O)[C@H](CC(=O)O)NC(=O)[C@H](CO)NC(=O)[C@@H](NC(=O)[C@H](Cc1ccccc1)NC(=O)[C@@H](NC(=O)CNC(=O)[C@H](CCC(N)=O)NC(=O)C(C)(C)NC(=O)[C@@H](N)Cc1c[nH]cn1)[C@@H](C)O)[C@@H](C)O)C(=O)N[C@@H](CO)C(=O)N[C@@H](CCCCN)C(=O)N[C@@H](Cc1ccc(O)cc1)C(=O)N[C@@H](CC(C)C)C(=O)N[C@@H](CC(=O)O)C(=O)NC(C)(C)C(=O)N[C@@H](CCCNC(=N)N)C(=O)N[C@@H](C)C(=O)N[C@@H](C)C(=O)N[C@@H](CCC(N)=O)C(=O)N[C@@H](CC(=O)O)C(=O)N[C@@H](Cc1ccccc1)C(=O)N[C@H](C(=O)N[C@@H](CCC(N)=O)C(=O)N[C@@H](Cc1c[nH]c2ccccc12)C(=O)N[C@@H](CC(C)C)C(=O)N[C@@H](CCCCN)C(=O)N[C@@H](CC(=O)O)C(=O)NCC(=O)N[C@@H](CCCNC(=N)N)C(=O)NCC(N)=O)C(C)C)C(=O)O)C(=O)O [compound 24] (H-H[Aib]QGTFTSDK([γGlu-γGlu-Palmitoyl])SKYLD[Aib]RAAQDFVQWLKDGRG-NH2; N-terminus assumed) |
